Columns and labels:
HCT116 cancer cells = experiment: HCT116 xenograft study in NOD/SCID mice; assay type: in vivo; set-up: key to tumor size: tumor volume in mm^3, (a×b²)/2 from caliper length and width; settings: for tumor size / ΔT/ΔC % value: HCT116 xenograft, complex 40 mg/kg, oxaliplatin 5 mg/kg; for tumor size: no unit in table (method gives tumor volume in mm^3); for ΔT/ΔC % value: day 22, highly active compounds have values less than 42%
Description: Xenograft studies were made by using HCT116 colon cancer cell lines after observing that the subject of the invention, palladium(II) complex, is especially effective on colon cancer cells. […] To obtain the xenografts, approximately 10^6 cells from exponentially growing HCT116 cells were intradermally injected in the axillae of 6-8 weeks old NOD/SCID mice by using the English double sided trocar implantation method. Two separate injections were made to each mouse. Two tumor inocula were added to each mouse in order to produce one tumor load for each mouse. […] These positive effects are the beneficial aspects of the English system.
Treatment was started in randomly chosen animal groups when the tumor volume reached 100-200 mm^3. […] The treatment was performed in 5 days of application and 2 days of resting periods. Tumor volume was calculated from [(axb^2)/2] formula. In this formula, a and b are tumor length and width which are measured by vernier caliper. Measurements were repeated twice weekly. Treated animals received a single dose from the drugs. Apart from tumor volume, ΔT/ΔC % values were calculated from ΔT═T−D0 and ΔC═C−D0 equations. D0 is the mean tumor volume at the beginning of the treatment, T is the mean tumor volume of treated mice and C is the mean tumor volume of untreated (not injected with complex) mice which is used as a control. […] Weight loss, neurological disorders and changes in diet were recorded as indication of toxicity (side effects). The experiments were terminated when the tumor volume reached approximately to 1000-1500 mm^3.

HT29 = assay type: cell-based; settings: for TGI (total growth inhibition) / GI50 / CC50: 48 hour incubation, unit not given (tested from 100 μM); for GI50: read-out: GI50 (dose inhibiting 50% cell growth); for CC50: read-out: LC50 (dose killing 50% of initially seeded cells)
Description: (§1) Anticancer activity tests were made on colon (HCT116, HT29, HCT15), lung (A549, H460) and ovarian (OVCARS, OVCAR3, NCI-ADRRES) cancer cell lines in vitro. All cell lines were obtained from American Type Culture Collection (Manassas, Va., USA) or American National Cancer Institute (NCl, USA). All cell lines were grown in RPMI1640 medium supplemented with 25 mM HEPES, 2 mM L-Glutamine, 5-10% fetal calf serum and antibiotics at 37° C. in a humidified 5% CO2 atmosphere.
(§2) The effect of the aforementioned compound on the selected cell lines indicated above was tested with Sulforhodamine B (SRB) assay that is also used by American National Cancer Institute. 100 μL of cancer cells were seeded at densities between 5.000-40.000 per well of a 96 well plate. The cells were incubated for 24 h for adaptation. […] The tested complex was dissolved in DMSO at 100 μM initial concentration and diluted to obtain 10 different concentrations as 1:2, 1:4 or 1:10. Every different concentration was analyzed in triplicates and in two independent experiments. The cells were fixed with 50% (w/v) ice-cold TCA in situ after 48 hour incubation. SRB dye bound to the cells was dissolved by unbuffered 10 mM Tris solution and absorbance values were measured at 530 nm in an ELISA microplate reader. Percentages for cell growth that were calculated from absorbance measurements (initial: TZ, control: C, complex at different concentrations: Ti) are as described below:
(§3) Gl50 (dose inhibiting 50% cell growth)=[Ti−Tz)/(C-Tz)]×100=50
(§4) TGI (total growth inhibition): Ti=Tz
(§5) LC50 (dose killing 50% of initially seeded cells)=[(Ti−Tz)/Tz]×100=−50

OVCAR3 = assay type: cell-based; settings: 48 hour incubation, unit not given (tested from 100 μM); for GI50: read-out: GI50 (dose inhibiting 50% cell growth)
Description: as §1, §2, §3, §4, §5

A549 = assay type: cell-based; settings: 48 hour incubation, unit not given (tested from 100 μM); for GI50: read-out: GI50 (dose inhibiting 50% cell growth); for CC50: read-out: LC50 (dose killing 50% of initially seeded cells)
Description: as §1, §2, §3, §4, §5

HCT116 = assay type: cell-based; settings: for TGI (total growth inhibition) / GI50 / CC50: 48 hour incubation, unit not given (tested from 100 μM); for GI50: read-out: GI50 (dose inhibiting 50% cell growth); for CC50: read-out: LC50 (dose killing 50% of initially seeded cells)
Description: as §1, §2, §3, §4, §5

H460 = assay type: cell-based; settings: 48 hour incubation, unit not given (tested from 100 μM); for GI50: read-out: GI50 (dose inhibiting 50% cell growth); for CC50: read-out: LC50 (dose killing 50% of initially seeded cells)
Description: as §1, §2, §3, §4, §5

NCI-ADRRES = assay type: cell-based; settings: 48 hour incubation, unit not given (tested from 100 μM); for GI50: read-out: GI50 (dose inhibiting 50% cell growth); for CC50: read-out: LC50 (dose killing 50% of initially seeded cells)
Description: as §1, §2, §3, §4, §5

OVCAR5 = assay type: cell-based; settings: 48 hour incubation, unit not given (tested from 100 μM); for GI50: read-out: GI50 (dose inhibiting 50% cell growth); for CC50: read-out: LC50 (dose killing 50% of initially seeded cells)
Description: as §1, §2, §3, §4, §5

HCT15 = assay type: cell-based; settings: for TGI (total growth inhibition) / GI50 / CC50: 48 hour incubation, unit not given (tested from 100 μM); for GI50: read-out: GI50 (dose inhibiting 50% cell growth); for CC50: read-out: LC50 (dose killing 50% of initially seeded cells)
Description: as §1, §2, §3, §4, §5

A549 cells = settings: cited from earlier work
[1] = Day 19 (value equal in all groups, start of treatment)
[2] = versus cisplatin, oxaliplatin and carboplatin

SMILES | tumor size (HCT116 cancer cells; [1]) | tumor size (HCT116 cancer cells; Day 22) | tumor size (HCT116 cancer cells; Day 26) | tumor size (HCT116 cancer cells; Day 29) | TGI (total growth inhibition) (HT29) | GI50 (HT29) [µM] | TGI (total growth inhibition) (OVCAR3) | GI50 (OVCAR3) [µM] | TGI (total growth inhibition) (A549) | GI50 (A549) [µM] | TGI (total growth inhibition) (HCT116) | GI50 (HCT116) [µM] | TGI (total growth inhibition) (H460) | GI50 (H460) [µM] | TGI (total growth inhibition) (NCI-ADRRES) | GI50 (NCI-ADRRES) [µM] | TGI (total growth inhibition) (OVCAR5) | GI50 (OVCAR5) [µM] | TGI (total growth inhibition) (HCT15) | GI50 (HCT15) [µM] | further results
O=C1[O][Pt]2([NH][C@@H]3CCCC[C@H]3[NH]2)[O]C1=O [Oxaliplatin, oxaliplatin] | 245.96 | 361.82 ± 153.96 | 538.00 ± 203.51 | 622.29 ± 152.76 | 56.5 | 6.3 | >100 | 9.1 | 58.2 | 4.4 | 64.1 | 0.9 | 95.6 | 6.8 | >100 | 24.8 | >100 | 50.7 | 17.2 | 6 | tumor size (HCT116 cancer cells; Day 33): 847.06 ± 176.45; ΔT/ΔC % value (HCT116 cancer cells): +70.60%
N.N.O=C([O-])C1(C(=O)[O-])CCC1.[Pt+2] [Carboplatin, carboplatin] | – | – | – | – | >100 | > 100 | >100 | > 100 | >100 | > 100 | >100 | > 100 | >100 | > 100 | >100 | > 100 | >100 | > 100 | >100 | > 100 | CC50 (HT29): > 100 µM; CC50 (A549): > 100 µM; CC50 (HCT116): > 100 µM; CC50 (H460): > 100 µM; CC50 (NCI-ADRRES): > 100 µM; CC50 (OVCAR5): > 100 µM; CC50 (HCT15): > 100 µM
O.O.O=C1[N-]S(=O)(=O)c2ccccc21.[Cl][Pd-2]12[n+]3ccccc3C[NH+]1Cc1cccc[n+]12 [[Pd(bpma)Cl](sac)·2H2O] | – | – | – | – | – | – | – | – | – | – | – | – | – | – | – | – | – | – | – | – | cytotoxic effect (A549 cells): showed a cytotoxic effect on A549 cells, similar to cisplatin
CCC1(CC)C(=O)NC(=O)[N]([Pd-2]23[n+]4ccccc4C[NH+]2Cc2cccc[n+]23)C1=O.O.[Cl-] [[Pd(bpma)(barb)]Cl•H2O, [Pd(bpma)(barb)]Cl·H2O] | 245.96 | 195.61 ± 151.45 | 373.88 ± 157.42 | 577.38 ± 157.37 | 6.6 | 3 | 25.2 | 6.5 | 80.1 | 43.1 | 9.1 | 4.9 | 75.9 | 44.4 | 10.0 | 5.6 | 63.5 | 40 | 9.9 | 6.8 | tumor size (HCT116 cancer cells; Day 33): 782.22 ± 228.55; decrease of tumor volume compared to oxaliplatin (HCT116 cancer cells; all time points of measurement, complex 40 mg/kg vs oxaliplatin 5 mg/kg): decreased the tumor volume more effectively than oxaliplatin in all time points of measurement; ΔT/ΔC % value (HCT116 cancer cells): −29.88%; CC50 (HT29): 22 µM; cytotoxic effect compared to anticancer drugs (HT29; [2]): selectively effective; CC50 (A549): > 100 µM; CC50 (HCT116): 82.4 µM; cytotoxic effect compared to anticancer drugs (HCT116; [2]): selectively effective; CC50 (H460): > 100 µM; CC50 (NCI-ADRRES): > 100 µM; CC50 (OVCAR5): 87 µM; CC50 (HCT15): 89.1 µM; cytotoxic effect compared to anticancer drugs (HCT15; [2]): selectively effective
N.N.[Cl][Pt][Cl] [Cisplatin, cisplatin] | – | – | – | – | 92.0 | 29.8 | >100 | 34.3 | 55.1 | 6.6 | 90.2 | 24.8 | 50.3 | 8.9 | >100 | 9.9 | >100 | 57.8 | 85.9 | 57.3 | –

Reference: patent US9839643B2, “Palladium complex with high anticancer activity” (ULUDAG ÜNIVERSITESI TTO, priority 2014, dated 2017)
